Drawing on ChEMBL document CHEMBL1131785, “Design and synthesis of amidino-tyrosine derivatives as non-peptide fibrinogen receptor antagonists” (Bioorg Med Chem Lett, 1999), this text covers IC50 for eight molecules.

A value given as a limit tells only on which side of the number the result lay.

The species named for this assay is Homo sapiens. In words: Inhibitory activity against adenosine diphosphate (ADP)-induced platelet aggregation. The format is functional, organism-based.
One may read the IC50 as the point on the concentration scale where inhibition reaches its midpoint. Low values mean greater potency in that assay, high ones weaker potency in that assay. Molecule `Cc1ccc(C(=O)N[C@@H](Cc2ccc(OCC(=O)Nc3ccc(C(=N)N)cc3)cc2)C(=O)O)cc1` registered an IC50 of 250 nM.
In turn, `Cc1ccccc1OCC(=O)N[C@@H](Cc1ccc(OCC(=O)Nc2ccc(C(=N)N)cc2)cc1)C(=O)O` showed an IC50 of 610 nM. This IC50 is about 2.4-fold higher than that of the molecule before.
The figure for `N=C(N)c1ccc(OCCCOc2ccc(C[C@H](NC(=O)c3ccccc3)C(=O)O)cc2)cc1` is more than 1000 nM.
The result for `N=C(N)c1ccc(NC(=O)COc2ccc(C[C@H](NC(=O)c3ccccc3)C(=O)O)cc2)cc1` reads 270 nM; that for `N=C(N)c1ccc(OCCOc2ccc(C[C@H](NC(=O)c3ccccc3)C(=O)O)cc2)cc1`, 740 nM; that for `N=C(N)c1ccc(OCCCCOc2ccc(C[C@H](NC(=O)c3ccccc3)C(=O)O)cc2)cc1`, more than 1000 nM.
The result for `N=C(N)c1ccc(OCCOc2ccc(C[C@H](NC(=O)c3ccco3)C(=O)O)cc2)cc1` reads 710 nM; that for `N=C(N)c1ccc(NC(=O)COc2ccc(C[C@H](NC(=O)c3ccc4ccccc4c3)C(=O)O)cc2)cc1`, 510 nM.
